Drawing on US7968570B2, “Isoindolone compounds and their use as metabotropic glutamate receptor potentiators” (AstraZeneca AB, priority 2004, dated 2011), this text covers EC50 for 21 compounds.

The target in the first assay is T1, human mGluR2 receptor (Homo sapiens, UniProt Q14416).
T1 construct: expressed in transfected cells
T1 sequence (Q14416 19-872): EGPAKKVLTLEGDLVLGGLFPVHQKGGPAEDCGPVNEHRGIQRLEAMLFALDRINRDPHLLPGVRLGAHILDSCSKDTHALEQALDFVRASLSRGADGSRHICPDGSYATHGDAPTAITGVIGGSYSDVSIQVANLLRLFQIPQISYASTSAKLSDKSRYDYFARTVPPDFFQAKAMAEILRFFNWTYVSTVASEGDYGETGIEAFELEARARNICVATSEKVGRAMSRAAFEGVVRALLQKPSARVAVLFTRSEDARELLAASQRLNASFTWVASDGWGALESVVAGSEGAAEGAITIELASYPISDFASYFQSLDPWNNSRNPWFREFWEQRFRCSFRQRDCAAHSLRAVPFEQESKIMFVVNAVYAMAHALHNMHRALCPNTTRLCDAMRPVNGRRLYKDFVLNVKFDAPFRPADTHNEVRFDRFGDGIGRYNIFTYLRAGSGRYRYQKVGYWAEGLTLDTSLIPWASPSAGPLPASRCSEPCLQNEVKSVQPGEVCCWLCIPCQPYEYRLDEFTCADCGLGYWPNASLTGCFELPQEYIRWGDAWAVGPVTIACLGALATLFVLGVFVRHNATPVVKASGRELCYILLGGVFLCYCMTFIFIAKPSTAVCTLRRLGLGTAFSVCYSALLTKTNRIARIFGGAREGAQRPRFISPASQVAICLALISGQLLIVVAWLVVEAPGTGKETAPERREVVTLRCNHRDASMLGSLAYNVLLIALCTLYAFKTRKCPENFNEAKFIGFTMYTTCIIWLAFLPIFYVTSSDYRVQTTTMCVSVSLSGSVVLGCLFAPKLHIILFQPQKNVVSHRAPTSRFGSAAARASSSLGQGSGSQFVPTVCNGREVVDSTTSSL
The assay is described as follows: [35S]-GTPγS binding assay of mGluR2 receptor activation. The class given is biochemical.
Conditions: not given
Summed up: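 CHO membranes stably expressing human mGluR2 (30 μg) preincubated 15 min at room temperature with compound (3 nM–300 μM), then 1 μM glutamate, 30 μM GDP, 0.1 nM [35S]-GTPγS, 30 min at 30° C in HEPES/NaCl/MgCl2. Filtration counting; EC50 and Emax relative to maximal glutamate effect by non-linear regression.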
(In general: GTPγS resists hydrolysis and so accumulates on activated G proteins.)
What is called EC50 is the concentration at which the effect is half-maximal. For the compound `CCN1CCC(Cc2cc(C)c3c(c2)CN(Cc2ccc(OC(F)(F)F)cc2)C3=O)CC1` [Example 166, 5-(1-Ethyl-piperidin-4-ylmethyl)-7-methyl-2-(4-trifluorometh-oxy-benzyl)-2,3-dihydro-isoindol-1-one], the EC50 was 0.52 µM.
On the same count and under the same terms, with `Cc1cc(CN2CCN(c3ccccn3)CC2)cc2c1C(=O)N(Cc1ccc(OC(F)(F)F)cc1)C2` [Example 167, 7-Methyl-5-(4-pyridin-2-yl-piperazin-1-ylmethyl)-2-(4-trifluorometh-oxy-benzyl)-2,3-dihydro-isoindol-1-one] the figure was 0.14 µM; with `Cc1cc(CC2CCN(Cc3cccnc3)CC2)cc2c1C(=O)N(Cc1ccc(OC(F)(F)F)cc1)C2` [Example 169, 7-methyl-5-(1-pyridin-3-ylmethyl-piperidin-4-ylmethyl)-2-(4-trifluorometh-oxy-benzyl)-2,3-dihydro-isoindol-1-one], 0.14 µM; with `Cc1cc(CC2CCN(Cc3ccncc3)CC2)cc2c1C(=O)N(Cc1ccc(OC(F)(F)F)cc1)C2` [Example 170, 7-methyl-5-(1-pyridin-4-ylmethyl-piperidin-4-ylmethyl)-2-(4-trifluorometh-oxy-benzyl)-2,3-dihydro-isoindol-1-one], 0.08 µM.
Consider `Cc1cc(CC2CCN(Cc3ccc(C#N)cc3)CC2)cc2c1C(=O)N(Cc1ccc(OC(F)(F)F)cc1)C2` [Example 171, 4-{4-[7-methyl-1-oxo-2-(4-trifluorometh-oxy-benzyl)-2,3-dihydro-1H-isoindol-5-ylmethyl]-piperidin-1-ylmethyl}-benzonitrile], for which the EC50 was found to be 0.04 µM.
With `CCCN1CCC(Cc2cc(C)c3c(c2)CN(Cc2ccc(OC(F)(F)F)cc2)C3=O)CC1` [Example 172, 7-methyl-5-(1-propyl-piperidin-4-ylmethyl)-2-(4-trifluorometh-oxy-benzyl)-2,3-dihydro-isoindol-1-one], a half-maximal effect (EC50) was put at 1.51 µM.
Same read-out and setting: the same measure for `Cc1cc(CC2CCN(C3CCCC3)CC2)cc2c1C(=O)N(Cc1ccc(OC(F)(F)F)cc1)C2` [Example 173, 5-(1-cyclopentyl-piperidin-4-ylmethyl)-7-methyl-2-(4-trifluorometh-oxy-benzyl)-2,3-dihydro-isoindol-1-one]: 0.82 µM; for `Cc1cc(CC2CCN(C(C)C)CC2)cc2c1C(=O)N(Cc1ccc(OC(F)(F)F)cc1)C2` [Example 174, 5-(1-isopropyl-piperidin-4-ylmethyl)-7-methyl-2-(4-trifluorometh-oxy-benzyl)-2,3-dihydro-isoindol-1-one]: 0.74 µM.
`Cc1cc(-c2nnc(CN(C)C)o2)cc2c1C(=O)N(Cc1ccc(OC(F)(F)F)cc1)C2` [Example 175, 5-(5-Dimethylamino-methyl-[1,3,4]oxadiazol-2-yl)-7-methyl-2-(4-trifluorometh-oxy-benzyl)-2,3-dihydro-isoindol-1-one] returned a 50% effective concentration (EC50) of 6.4 µM. Compared with the last compound, the EC50 is about 8.6-fold higher.
On the same count and under the same terms, the same measure for `Cc1cc(-c2nnc(CN3CCOCC3)o2)cc2c1C(=O)N(Cc1ccc(OC(F)(F)F)cc1)C2` [Example 176, 7-Methyl-5-(5-morpholin-4-ylmethyl-[1,3,4]oxadiazol-2-yl)-2-(4-trifluorometh-oxy-benzyl)-2,3-dihydro-isoindol-1-one]: 1.29 µM; for `CCN(CC)Cc1noc(-c2cc(C)c3c(c2)CN(Cc2ccc(OC(F)(F)F)cc2)C3=O)n1` [Example 177, 5-(3- Diethylaminomethyl-[1,2,4]oxadiazol-5-yl)-7-methyl-2-(4-trifluorometh-oxy-benzyl)-2,3-dihydro-isoindol-1-one]: 0.14 µM; for `Cc1cc(-c2nc(CN3CCOCC3)no2)cc2c1C(=O)N(Cc1ccc(OC(F)(F)F)cc1)C2` [Example 178, 7-Methyl-5-(3-morpholin-4-ylmethyl-[1,2,4]oxadiazol-5-yl)-2-(4-trifluorometh-oxy-benzyl)-2,3-dihydro-isoindol-1-one]: 0.11 µM.
As to `CNCc1noc(-c2cc(C)c3c(c2)CN(Cc2ccc(OC(F)(F)F)cc2)C3=O)n1` [Example 179, 7-Methyl-5-(3-methylamino-methyl-[1,2,4]oxadiazol-5-yl)-2-(4-trifluorometh-oxy-benzyl)-2,3-dihydro-isoindol-1-one], the midpoint of the response, the EC50, lay at 0.47 µM.
Still for that read-out and setting: the same measure for `Cc1cc(-c2nc(CN(C)C)no2)cc2c1C(=O)N(Cc1ccc(OC(F)(F)F)cc1)C2` [Example 180, 5-(3-Dimethylamino-methyl-[1,2,4]oxadiazol-5-yl)-7-methyl-2-(4-trifluorometh-oxy-benzyl)-2,3-dihydro-isoindol-1-one]: 0.1 µM; for `CNCc1nnc(-c2cc(C)c3c(c2)CN(Cc2ccc(OC(F)(F)F)cc2)C3=O)o1` [Example 181, 7-Methyl-5-(5-methylaminomethyl-[1,3,4]oxadiazol-2-yl)-2-(4-trifluorometh-oxy-benzyl)-2,3-dihydro-isoindol-1-one]: 2.12 µM.
For `O=C1c2c(Cl)cc(CC3CCN(Cc4ccncc4)CC3)cc2CN1Cc1ccc(OC(F)(F)F)cc1` [Example 182], the EC50 was 0.04 µM.

The assay is the same for the next values; noted with them: membranes from CHO cells stably expressing human mGluR2; 1 μM glutamate.
Consider `Cc1cc(C2CCN(C)CC2)cc2c1C(=O)N(Cc1ccc(OC(F)(F)F)cc1)C2` [Example 159, 7-Methyl-5-(1-methyl-piperidin-4-yl)-2-(4-trifluoromethoxy-benzyl)-2,3-dihydro-isoindol-1-one], for which the EC50 is 1.28 µM.
Regarding `Cc1cc(C(=O)N2CCN(Cc3ccccc3)CC2)cc2c1C(=O)N(Cc1ccc(OC(F)(F)F)cc1)C2` [Example 161, 5-(4-Benzyl-piperazine-1-carbonyl)-7-methyl-2-(4-trifluoromethoxy-benzyl)-2,3-dihydro-isoindol-1-one], the EC50 amounted to 0.63 µM.
In turn, `Cc1cc(C(=O)N2CCN(Cc3ccncc3)CC2)cc2c1C(=O)N(Cc1ccc(OC(F)(F)F)cc1)C2` [Example 162, 7-Methyl-5-(4-pyridin-4-ylmethyl-piperazine-1-carbonyl)-2-(4-trifluoromethoxy-benzyl)-2,3-dihydro-isoindol-1-one] returned an EC50 of 0.55 µM.
Still for that read-out and setting: with `Cc1cc(C(=O)N2CCN(CCc3ccncc3)CC2)cc2c1C(=O)N(Cc1ccc(OC(F)(F)F)cc1)C2` [Example 163, 7-Methyl-5-[4-(2-pyridin-4-yl-ethyl)piperazine-1-carbonyl]-2-(4-trifluoromethoxy-benzyl)-2,3-dihydro-isoindol-1-one] the figure was 1.21 µM.
On the same count and under the same terms, the same measure for `Cc1cc(CN(C)Cc2ccccc2)cc2c1C(=O)N(Cc1ccc(OC(F)(F)F)cc1)C2` [compound 35, 5-[(Benzylmethylamino)-methyl]-7-methyl-2-(4-trifluoromethoxy-benzyl)-2,3-dihydro-isoindol-1-one]: 0.07 µM.
